Active and inactive are the calls of the source. No cut-off for these calls is given here. Where only a bound is given, the exact number is not on record here.

Assay [1] deals with T1, E3 ubiquitin-protein ligase Mdm2 (Homo sapiens, UniProt Q00987). Nature of the assay: Inhibition of Mdm2 -p53 protein interaction by ELISA.
Target sequence in this assay (Q00987 whole entry): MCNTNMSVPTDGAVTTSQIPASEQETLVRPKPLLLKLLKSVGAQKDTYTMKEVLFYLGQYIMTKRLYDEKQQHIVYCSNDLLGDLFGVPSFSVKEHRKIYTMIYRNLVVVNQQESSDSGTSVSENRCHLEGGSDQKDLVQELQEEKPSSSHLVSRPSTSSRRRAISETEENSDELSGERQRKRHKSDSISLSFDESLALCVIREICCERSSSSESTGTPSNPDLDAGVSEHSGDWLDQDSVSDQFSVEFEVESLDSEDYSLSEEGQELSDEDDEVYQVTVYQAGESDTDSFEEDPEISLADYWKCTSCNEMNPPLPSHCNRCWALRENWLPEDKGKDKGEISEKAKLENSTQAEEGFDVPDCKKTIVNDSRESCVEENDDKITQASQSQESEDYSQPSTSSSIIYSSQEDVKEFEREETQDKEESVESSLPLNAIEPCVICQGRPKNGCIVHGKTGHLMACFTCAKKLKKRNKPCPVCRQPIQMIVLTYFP
Assay [2] concerns the target T1, E3 ubiquitin-protein ligase Mdm2. Nature of the assay: Inhibition of Mdm2 -p53 protein interaction in human […] cells assessed as induction of MDM2 protein at 1 to 20 uM after 6 hrs by Western blot analysis. It counts as cell-based.
Target sequence in this assay (Q00987 whole entry, looked up): as the sequence (Q00987 whole entry) above
For assay [3] the target is unchanged. Nature of the assay: Inhibition of Mdm2 -p53 protein interaction in human […] cells assessed as induction of p53 protein at 1 to 20 uM after 6 hrs by Western blot analysis. It counts as cell-based.
Target sequence in this assay (Q00987 whole entry, looked up): as the sequence (Q00987 whole entry) above
For assay [4] the target is unchanged. In words: Inhibition of Mdm2 -p53 protein interaction in human […] cells assessed as induction of p21 protein at 1 to 20 uM after 6 hrs by Western blot analysis. Type of assay: cell-based.
Target sequence in this assay (Q00987 whole entry, looked up): as the sequence (Q00987 whole entry) above
The target is the same in assay [5]. In words: Inhibition of Mdm2 -p53 protein interaction in human […] cells assessed as induction of p21 protein at 10 uM after 6 hrs by Western blot analysis. It counts as cell-based.
Target sequence in this assay (Q00987 whole entry, looked up): as the sequence (Q00987 whole entry) above
The target is the same in assay [6]. Nature of the assay: Inhibition of Mdm2 -p53 protein interaction in human […] cells assessed as induction of p53 protein at 10 uM after 6 hrs by Western blot analysis. Type of assay: cell-based.
Target sequence in this assay (Q00987 whole entry, looked up): as the sequence (Q00987 whole entry) above
Assay [7] relates to HCT-116. Nature of the assay: Cytotoxicity against human p53 expressing HCT116 cells after 72 hrs by sulforhodamine B assay. Type of assay: functional. Particulars: HCT-116, 72 h.
Assay [8] deals with HCT-116. In words: Cytotoxicity against p53 deficient human HCT116 cells after 72 hrs by sulforhodamine B assay. It counts as functional. Conditions: HCT-116, 72 h.
Assay [9] is described as follows: Cytotoxicity against human NGP cells after 72 hrs by sulforhodamine B assay. It counts as functional.
The subject of another assay is SJSA-1. In words: Cytotoxicity against human SJSA1 cells after 72 hrs by sulforhodamine B assay. Type of assay: functional. Particulars: SJSA-1, 72 h.
The test system of another assay is SAOS-2. In words: Cytotoxicity against human Saos2 cells after 72 hrs by sulforhodamine B assay. Type of assay: functional. Conditions: SAOS-2, 72 h.
Assay [10] is described as follows: Cytotoxicity against human LS cells after 72 hrs by sulforhodamine B assay. It counts as functional.

In the case of `CCCN1C(=O)c2ccccc2C1(O)c1ccc(Cl)cc1` (stereo unspecified), the IC50 in assay [1] stood at 69 µM.

`Cc1ccc(CN2C(=O)c3ccccc3C2(O)c2ccc(Cl)cc2)cc1` (stereo unspecified) came in with an IC50 in assay [1] of 15 µM.

Regarding `N#Cc1ccc(CN2C(=O)c3ccccc3C2(O)c2ccc(Cl)cc2)cc1` (stereo unspecified), 6 µM corresponded to half-maximal inhibition in assay [1] (IC50).

In turn, `O=C1c2ccccc2C(O)(c2ccc(Br)cc2)N1Cc1ccc([N+](=O)[O-])cc1` (stereo unspecified) registered an IC50 in assay [1] of 3.1 µM. Against the preceding molecule, the IC50 is about 1.9-fold lower.

Molecule `O=C1c2ccccc2C(O)(c2ccc(Cl)cc2)N1CCc1ccccc1` (stereo unspecified) displayed an IC50 in assay [1] of 7.2 µM.

`O=C1c2ccccc2C(O)(c2ccc(Cl)cc2)N1CCc1ccc([N+](=O)[O-])cc1` (stereo unspecified) gave an IC50 in assay [1] of 6.2 µM.

In assay [1], `Nc1ccc(CCN2C(=O)c3ccccc3C2(O)c2ccc(Cl)cc2)cc1` (stereo unspecified) returned an IC50 of 6.2 µM.

`O=C1c2ccccc2C(O)(c2ccc(Cl)cc2)N1Cc1cccc2ccccc12` (stereo unspecified) showed an IC50 in assay [1] of 47 µM.

Regarding `O=C(c1ccccc1)c1ccc(CN2C(=O)c3ccccc3C2(O)c2ccc(Cl)cc2)cc1` (stereo unspecified), the IC50 in assay [1] is more than 20 µM.

With `O=C1c2ccccc2C(O[C@H]2CC[C@@H](O)C2)(c2ccc(Cl)cc2)N1Cc1ccc([N+](=O)[O-])cc1` (mixture of isomers), inhibition in assay [1] was half-maximal at 0.4 µM (IC50).

For the molecule `O=C1c2ccccc2C(O[C@H]2C=C[C@@H](O)C2)(c2ccc(Cl)cc2)N1Cc1ccccc1` (mixture of isomers), the midpoint of inhibition in assay [1], the IC50, lay at 4.7 µM.

`N#Cc1ccc(CN2C(=O)c3ccccc3C2(OCCCCO)c2ccc(Cl)cc2)cc1` (racemic) gave an IC50 in [1] of 3.5 µM.

Turning to `O=C1c2ccccc2C(O[C@H]2CCC[C@H](O)CCC2)(c2ccc(Cl)cc2)N1Cc1ccc([N+](=O)[O-])cc1` (mixture of isomers), the inhibition entry in assay [2], in assay [3] and in assay [4] was “Dose-dependent effect” each time. In assay [1], this molecule displayed an IC50 of 0.38 µM.

`O=C1c2ccccc2C(OCC2(CO)CC2)(c2ccc(Cl)cc2)N1Cc1ccncc1` (racemic) registered an IC50 in assay [1] of 252 µM.

Consider `CC(C)(CO)COC1(c2ccc(Cl)cc2)c2ccccc2C(=O)N1Cc1ccc([N+](=O)[O-])cc1` (racemic), for which the inhibition entry in [2], in assay [3] and in assay [4] was “Dose-dependent effect” in each case.

`O=C1c2ccccc2C(OC[C@H]2CC[C@H](CO)CC2)(c2ccc(Cl)cc2)N1Cc1ccc([N+](=O)[O-])cc1` (mixture of isomers): the inhibition entry in assay [2], in assay [3] and in assay [4] was “Dose-dependent effect” each time. Also, the inhibition result in assay [5] and in assay [6] was “Active” in each case.

On to `COc1ccc(C2=N[C@@H](c3ccc(Cl)cc3)[C@@H](c3ccc(Cl)cc3)N2C(=O)N2CCNC(=O)C2)c(OC(C)C)c1` [NUTLIN-3], for which the GI50 in the assay on HCT-116 [7] was determined as 13 µM; with HCT-116 [8] it was 34 µM; in [9], 2.1 µM; in the assay on SJSA-1 it was 2.6 µM; in the assay with SAOS-2 it was 18 µM; in assay [10], 2.3 µM.
